In patent US11072614B2, “Polymorphs of sepiapterin and salts thereof” (PTC Therapeutics MP, Inc., priority 2016, dated 2021):

How the values were obtained:
Assay type in all cases: physicochemical
[1] = Storage stability of polymorphs, HPLC sepiapterin and impurity profile (Example 12); set-up: Impurity RRT 1.06 / Impurity RRT 1.08 / Impurity RRT 1.17 / Impurity RRT 1.21 / Impurity RRT 1.25 / Impurity RRT 0.62 / Impurity RRT 0.89 / Impurity RRT 0.95 / Impurity RRT 0.60: unit not given here
Protocol: Samples of sepiapterin free base polymorph Forms D, F, and A were stored at room temperature (RT), 35° C., and 50° C. The samples were analyzed by HPLC at 1 week and 4 week intervals. The HPLC parameters were as follows: [table]

[2] = Storage stability study of solid forms, HPLC purity (Example 11)
Protocol: (§1) Form A and F samples were placed in chambers with silica gel to remove water (the relative humidity was measured to be ˜10% RH) at different temperatures. Form D samples were placed in chambers with water (relative humidity was estimated to be ˜100% RH) at different temperatures.
(§2) The HPLC purities and XRD patterns were obtained for each of Form A/F/D samples stored at various temperatures.

[3] = Physical form stability to grinding and sieving (XRD before and after)
Protocol: A sample of sepiapterin free base was obtained commercially. […] The sepiapterin sample contained particles with an average particle size over 100 μm. The XRD pattern was determined before and after grinding to reduce the particle size such that it passes through a 140 mesh screen. This polymorph of sepiapterin free base is referred to as Form A herein.

[4] = Storage stability study of solid forms, form change by XRD (Example 11)
Protocol: For X-ray powder diffraction analysis, a PANalytical Empyrean X-ray powder diffractometer was used. The parameters are as follows:
as §1, §2

[5] = 35° C., 100% RH, storage 1 week
[6] = 35° C., 100% RH, storage 4 weeks
[7] = 50° C., 100% RH, storage 1 week
[8] = 50° C., 100% RH, storage 4 weeks
[9] = 35° C./10% RH, 1 w, listed as Polymorph A
[10] = 35° C./10% RH, 4 w, listed as Polymorph A
[11] = 50° C./10% RH, 1 w, listed as Polymorph A
[12] = 50° C./10% RH, 4 w, listed as Polymorph A
[13] = RT/10% RH, 1 w, listed as Polymorph A
[14] = RT/10% RH, 4 w, listed as Polymorph A
[15] = 35° C., 10% RH, storage 4 weeks
[16] = 50° C., 10% RH, storage 4 weeks

## C[C@H](O)C(=O)C1=Nc2c(nc(N)[nH]c2=O)NC1 [Form D, sepiapterin]
[1]; 35° C./100% RH, 1 w
  Impurity RRT 0.62: <0.05
  Impurity RRT 0.95: 0.86
  Impurity RRT 1.08: 0.14
  Impurity RRT 1.17: 0.17
  Sepiapterin RRT 1.00 (amount of sepiapterin): 98.83%
[1]; 35° C./100% RH, 4 w
  Impurity RRT 0.62: 0.09
  Impurity RRT 0.95: 1.04
  Impurity RRT 1.08: <0.05
  Impurity RRT 1.17: 0.17
  Sepiapterin RRT 1.00 (amount of sepiapterin): 98.70%
[1]; 50° C./100% RH, 1 w
  Impurity RRT 0.62: 0.08
  Impurity RRT 0.95: 1.05
  Impurity RRT 1.08: 0.26
  Impurity RRT 1.17: 0.16
  Sepiapterin RRT 1.00 (amount of sepiapterin): 98.45%
[1]; 50° C./100% RH, 4 w
  Impurity RRT 0.62: 0.14
  Impurity RRT 0.95: 2.03
  Impurity RRT 1.08: <0.05
  Impurity RRT 1.17: 0.18
  Sepiapterin RRT 1.00 (amount of sepiapterin): 97.65%
[1]; Initial
  Impurity RRT 1.08: <0.05
  Impurity RRT 1.17: 0.17
[1]; Initial, listed as Polymorph D
  Impurity RRT 0.62: <0.05
  Impurity RRT 0.95: 0.69
  Sepiapterin RRT 1.00 (amount of sepiapterin): 99.14%
[1]; Initial, listed as polymorph D
  Sepiapterin RRT 1.00 (amount of sepiapterin): 99.14%
[1]; RT/100% RH, 1 w
  Impurity RRT 0.62: <0.05
  Impurity RRT 0.95: 0.83
  Impurity RRT 1.08: <0.05
  Impurity RRT 1.17: 0.16
  Sepiapterin RRT 1.00 (amount of sepiapterin): 99.01%
[1]; RT/100% RH, 4 w
  Impurity RRT 0.62: 0.09
  Impurity RRT 0.95: 0.81
  Impurity RRT 1.08: <0.05
  Impurity RRT 1.17: 0.17
  Sepiapterin RRT 1.00 (amount of sepiapterin): 98.92%
[1]; storage at RT, 35° C., 50° C., 1 w and 4 w
  stability compared with polymorph A (in words): significantly greater stability
[2]; [5]
  % of Initial: 99.7%
  Purity (area %): 98.8 area %
[2]; [6]
  % of Initial: 99.6%
  Purity (area %): 98.7 area %
[2]; [7]
  % of Initial: 99.3%
  Purity (area %): 98.5 area %
[2]; [8]
  % of Initial: 98.5%
  Purity (area %): 97.7 area %
[2]; RT, 100% RH, storage 1 week
  % of Initial: 99.9%
  Purity (area %): 99.0 area %
[2]; RT, 100% RH, storage 4 weeks
  % of Initial: 99.8%
  Purity (area %): 98.9 area %
[3]
  physical form stability to grinding and sieving: potential instability
[4]; [5]
  Form change: No
[4]; [6]
  Form change: No
[4]; [7]
  Form change: No
[4]; [8]
  Form change: No
[4]; RT, 100% RH, storage 1 week
  Form change: No
[4]; RT, 100% RH, storage 4 weeks
  Form change: No

## C[C@H](O)C(=O)C1=Nc2c(nc(N)[nH]c2=O)NC1 [Form A, sepiapterin]
[1]; 35° C./10% RH, 1 w
  Impurity RRT 0.62: 0.24
  Impurity RRT 0.89: <0.05
  Impurity RRT 1.06: <0.05
  Impurity RRT 1.21: <0.05
  Impurity RRT 1.25: <0.05
[1]; [9]
  Impurity RRT 0.95: 1.36
  Impurity RRT 1.08: 0.28
  Impurity RRT 1.17: 0.16
  Sepiapterin RRT 1.00 (amount of sepiapterin): 97.97%
[1]; 35° C./10% RH, 4 w
  Impurity RRT 0.62: 1.03
  Impurity RRT 0.89: <0.05
  Impurity RRT 1.06: <0.05
  Impurity RRT 1.08: <0.05
  Impurity RRT 1.21: <0.05
  Impurity RRT 1.25: <0.05
[1]; [10]
  Impurity RRT 0.95: 2.70
  Impurity RRT 1.17: 0.16
  Sepiapterin RRT 1.00 (amount of sepiapterin): 96.06%
[1]; 50° C./10% RH, 1 w
  Impurity RRT 0.62: 0.68
  Impurity RRT 0.89: <0.05
  Impurity RRT 1.06: 0.45
  Impurity RRT 1.21: <0.05
  Impurity RRT 1.25: <0.05
[1]; [11]
  Impurity RRT 0.95: 3.48
  Impurity RRT 1.08: 0.08
  Impurity RRT 1.17: 0.16
  Sepiapterin RRT 1.00 (amount of sepiapterin): 95.15%
[1]; 50° C./10% RH, 4 w
  Impurity RRT 0.62: 2.59
  Impurity RRT 0.89: 0.06
  Impurity RRT 1.06: <0.05
  Impurity RRT 1.17: 0.17
  Impurity RRT 1.21: 0.06
  Impurity RRT 1.25: 0.11
[1]; [12]
  Impurity RRT 0.95: 7.67
  Impurity RRT 1.08: 0.85
  Sepiapterin RRT 1.00 (amount of sepiapterin): 88.49%
[1]; 50° C./10% RH, 4 w, listed as polymorph A
  Sepiapterin RRT 1.00 (amount of sepiapterin): 88.49%
[1]; Initial
  Impurity RRT 0.89: <0.05
  Impurity RRT 1.06: <0.05
  Impurity RRT 1.08: <0.05
  Impurity RRT 1.17: 0.17
  Impurity RRT 1.21: <0.05
  Impurity RRT 1.25: <0.05
[1]; Initial, listed as Polymorph A
  Impurity RRT 0.62: 0.08
  Impurity RRT 0.95: 0.42
  Sepiapterin RRT 1.00 (amount of sepiapterin): 99.33%
[1]; Initial, listed as polymorph A
  Sepiapterin RRT 1.00 (amount of sepiapterin): 99.33%
[1]; RT/10% RH, 1 w
  Impurity RRT 0.62: 0.16
  Impurity RRT 0.89: <0.05
  Impurity RRT 1.06: <0.05
  Impurity RRT 1.17: 0.16
  Impurity RRT 1.21: <0.05
  Impurity RRT 1.25: <0.05
[1]; [13]
  Impurity RRT 0.95: 0.77
  Impurity RRT 1.08: 0.11
  Sepiapterin RRT 1.00 (amount of sepiapterin): 98.80%
[1]; RT/10% RH, 4 w
  Impurity RRT 0.62: 0.37
  Impurity RRT 0.89: <0.05
  Impurity RRT 1.06: <0.05
  Impurity RRT 1.08: <0.05
  Impurity RRT 1.17: 0.16
  Impurity RRT 1.21: <0.05
  Impurity RRT 1.25: <0.05
[1]; [14]
  Impurity RRT 0.95: 1.29
  Sepiapterin RRT 1.00 (amount of sepiapterin): 98.18%
[2]; 35° C., 10% RH, storage 1 week
  % of Initial: 98.6%
  Purity (area %): 98.0 area %
[2]; [15]
  % of Initial: 96.7%
  Purity (area %): 96.1 area %
[2]; 50° C., 10% RH, storage 1 week
  % of Initial: 95.8%
  Purity (area %): 95.2 area %
[2]; [16]
  % of Initial: 89.1%
  Purity (area %): 88.5 area %
[2]; RT, 10% RH, storage 1 week
  % of Initial: 99.5%
  Purity (area %): 98.8 area %
[2]; RT, 10% RH, storage 4 weeks
  % of Initial: 98.8%
  Purity (area %): 98.2 area %
[2]; initial, before storage
  purity of initial samples by HPLC: 99.3 area %
[2]; storage at RT, 35° C., 50° C., 1 and 4 weeks
  stability as determined by HPLC (in words): significantly less stability
[3]
  physical form stability to grinding and sieving: confirms the physical form stability
[4]; 35° C., 10% RH, storage 1 week
  Form change: No
[4]; [15]
  Form change: No
[4]; 50° C., 10% RH, storage 1 week
  Form change: No
[4]; [16]
  Form change: No
[4]; RT, 10% RH, storage 1 week
  Form change: No
[4]; RT, 10% RH, storage 4 weeks
  Form change: No
